Source: US4939156A (priority 1987, dated 1990)
≈ marks a conversion by molar mass, not a printed value.

Tests used:
[1] = tested on: Newcastle disease virus (NDV) Miyadera strain; test: microbe, parasite or virus in culture; assay type: cell-based; conditions: for IC50: avian paramyxovirus 1, 48 h, read-out: Inhibitory Concentration (IC50) which inhibited by 50% the denaturation of Virus No. 2 infested HeLa-Y cell; for Quotient of minimum denaturation concentration divided by IC50, Virus No. 2: figures in brackets, HeLa-Y cell, NDV, 2880 min
[2] = in vitro; conditions: dog, mdck
[3] = tested on: human premyelocytic leukemia cells (HL-60); test: NBT-reducing ability (differentiation) of HL-60 cells after treatment with test compound; assay type: cell-based; conditions: 0.1% NBT, 37° C., 20 minutes
Procedure: (§1) The human premyelocytic elukemia cells (HL-60 cell) are characterized by the ability to respond to pharmacological inducers of differentiation and can produce the normal granulocytes when they have been differentiated, as described in the "Blood" Vol. 54, No. 3, 713-733 (1979).
(§2) Thus, firstly the cell differentiation-inducing activity of the compound was assayed by the following procedure described in said "Blood". Namely, HL-60 cells were incubated by passing successively through RPMI 1640 media supplemented with 10% FCS (fetal calf serum), followed by adding the test compound at varying concentrations to aliquots of the culture of the HL-60 cells at the logarithmic phase of growth. The HL-60 cells thus incubated were further incubated in the presence of the test compound for 6 days and subsequently fixed to slide glasses. The fixed HL-60 cells were stained with May-Gruenwald-Giemsa's reagent and the morphology of the nuclei in the stained cells was examined to judge which of the cells has been differentiated into the normal granulocytes. Then, the number of the HL-60 cells which had propagated were counted.
Secondly, the another aliquot of the culture of the HL-60 cells which were incubated in the above procedure in the presence of the test compound at its evaluated "IC50 " concentration was centrifuged to collect the cells, which were then diluted with a volume of RPMI 1640 medium supplemented with 10% FCS, to provide a given concentration of the cells. Subsequently, the cells which were diluted with said medium were added and mixed with 0.1% of NBT and then incubated at 37° C. for 20 minutes. The number of the cells which stained black color owing to the involved reduction of NBT and which could be judged to have the ability to reduce NBT was counted.

[4] = in vitro; conditions: monkey, vero cells
[5] = tested on: Influenza virus A/PR/8/34 strain; test: Antiviral activity, Virus No. 1 infested MDCK cell; assay type: cell-based; conditions: for IC50: PR/8, MDCK, 48 h, read-out: Inhibitory Concentration (IC50) which inhibited by 50% the denaturation of Virus No. 1 infested MDCK cell; for Quotient of minimum denaturation concentration divided by IC50, Virus No. 1: figures in brackets, MDCK cell, Influenza virus, 2880 min
[6] = tested on: vesicular stomatitis virus (VSV) New Jersey strain; test: microbe, parasite or virus in culture; assay type: cell-based; conditions: for IC50: Vesicular stomatitis virus, L929, 48 h, read-out: Inhibitory Concentration (IC50) which inhibited by 50% the denaturation of Virus No. 3 infested L-929 cell; for Quotient of minimum denaturation concentration divided by IC50, Virus No. 3: figures in brackets, L-929 cell, VSV, 2880 min
[7] = in vitro; conditions: mouse, l-929 cells
[8] = in vitro; conditions: human, hela-y cells
[9] = tested on: Herpes simplex virus (HSV) Type 2 196 strain; test: Antiviral activity, Virus No. 5 infested Vero cell; assay type: cell-based; conditions: for IC50: 48 h, HSV Type 2, Vero cell, read-out: Inhibitory Concentration (IC50) which inhibited by 50% the denaturation of Virus No. 5 infested Vello cell; for Quotient of minimum denaturation concentration divided by IC50, Virus No. 5: figures in brackets, Vero cell, HSV Type 2
[10] = tested on: Vaccinia virus Lister strain; test: organism not typed; assay type: cell-based; conditions: for IC50: 48 h, read-out: Inhibitory Concentration (IC50) which inhibited by 50% the denaturation of Virus No. 4 infested HeLa-Y cell; for Quotient of minimum denaturation concentration divided by IC50, Virus No. 4: figures in brackets, HeLa-Y cell, Vaccinia virus, 2880 min
[11] = tested on: human premyelocytic leukemia cells (HL-60); test: 50% inhibition of propagation of undifferentiated human premyelocytic leukemia HL-60 cells; assay type: cell-based; conditions: 144 h, 6 days incubation, read-out: Activity of test compound to inhibit by 50% the undifferentiated propagation of HL-60 cells (IC50)
Procedure: as §1, §2
As said "IC50 " concentration of the test compound was assumed such concentration of the test compound at which the counted number of the HL-60 cells having propagated was reduced by 50%, as compared to that counted in the control tests where the test compound was not used.

[12] = tested on: mice; test: Acute toxicity in mice given i.p.; assay type: in vivo; conditions: twice a day, 4 days, counted at 5th day
Procedure: For estimation of toxicity of the new compounds of this invention for mammalian animals, acute toxicity of the TI-27 Substance of Example 1 as a representative example was tested by intraperitoneal administration of a suspension of 25 mg/ml of TI-27 substance in a 0.5% aqueous solution of carboxymethyl cellulose (CMC) to mice (five in each group). The TI-27 substance was given to mice twice a day at a unit dosage of 5 mg, 1.25 mg, 0.313 mg, 0.078 mg or 0.02 mg per mouse for consecutive 4 days, totally 8 times. The number of the surviving mice which tolerated the administration of TI-27 Substance was counted at the 5th day of the tests.

SMILES | IC50 [1] [µg/mL] | Quotient of minimum denaturation concentration divided by IC50, Virus No. 2 [1] | MCC at 48 h [2] [µg/mL] | Percent of the number of the cells showing the NBT-reducing ability after treatment with test compound at IC50 concentration [3] [%] | MCC at 48 h [4] [µg/mL] | IC50 [5] [µg/mL] | Quotient of minimum denaturation concentration divided by IC50, Virus No. 1 [5] | IC50 [6] [µg/mL] | Quotient of minimum denaturation concentration divided by IC50, Virus No. 3 [6] | MCC at 48 h [7] [µg/mL] | MCC at 48 h [8] [µg/mL] | IC50 [9] [µg/mL] | Quotient of minimum denaturation concentration divided by IC50, Virus No. 5 [9] | IC50 [10] [µg/mL] | Quotient of minimum denaturation concentration divided by IC50, Virus No. 4 [10] | IC50 [11] [µg/mL] | also measured
CCN1C(=O)[C@@H]2[C@H](N(CC)C1=O)C(C)(C)C2(C)C (relative stereo) [TI-16 Substance, 2,4-diethyl-7,7,8,8-tetramethyl-cis-2,4-diaza-bicyclo{4.2.0}octane-3,5-dione] | > 250 | < 1.0 | 1000 | 69 | 500 | 375 (≈ 1490 µM) | 2.67 | > 500 | < 1.0 | 500 | 250 | 375 (≈ 1490 µM) | 1.33 | > 250 | < 1.0 | 17 (≈ 67.4 µM) | 
CN1C(=O)[C@@H]2[C@H](N(C)C1=O)C(C)(C)C2(C)C (relative stereo) [TI-27 Substance, 2,4,7,7,8,8-hexamethyl-cis-2,4-diaza-bicyclo{4.2.0}octane-3,5-dione] | > 250 | < 1.0 | 1000 | 51 | 500 | 188 (≈ 838 µM) | 5.32 | > 500 | < 1.0 | 250 | 250 | > 500 | < 1.0 | > 250 | < 1.0 | 35 (≈ 156 µM) | Number of surviving mice/number of mice tested ([12]; 0.02 mg/mouse i.p.): 5/5; Number of surviving mice/number of mice tested ([12]; 0.078 mg/mouse i.p.): 5/5; Number of surviving mice/number of mice tested ([12]; 0.313 mg/mouse i.p.): 5/5; Number of surviving mice/number of mice tested ([12]; 1.25 mg/mouse i.p.): 1/5; Number of surviving mice/number of mice tested ([12]; 5 mg/mouse i.p.): 0/5
Nc1nc2c(ncn2COCCO)c(=O)[nH]1 [Acyclovir, reference compound] |  |  |  |  | > 1000 |  |  |  |  |  |  | 1.17 (≈ 5.2 µM) | > 855 |  |  |  | 
NC12CC3CC(CC(C3)C1)C2 [Amantadine, reference compound] |  |  | 250 |  |  | 50 (≈ 331 µM) | 5.0 |  |  |  |  |  |  |  |  |  | 
CC1(C)O[C@@H]2[C@H](O1)[C@@H](CO)O[C@H]2N1C(=O)NC(=O)C2C1C(C)(C)C2(C)C (stereo partly drawn) [TI-28 Substance, 7,7,8,8-tetramethyl-2-(2',3'-isopropylidene-ribofuranosyl)-cis-2,4-diaza-bicyclo{4.2.0}octane-3,5-dione] | > 1000 |  | 1000 | 37 | > 1000 | 750 (≈ 2040 µM) | 1.33 | 1000 (≈ 2710 µM) | 1.0 | > 1000 | > 1000 | > 1000 | < 1.0 | > 1000 |  | 62.5 (≈ 170 µM) | 
CN1C(=O)NC2C(C)(C)C(C)(C)C2(F)C1=O (stereo not shown) [TI-61 Substance, 6-fluoro-4,7,7,8,8-pentamethyl-2,4-diaza-bicyclo{4.2.0}octane-3,5-dione] | > 125 | < 1.00 | 250 | 18 | 125 | 188 (≈ 824 µM) | 1.33 | 93.8 (≈ 411 µM) | 1.33 | 125 | 125 | 93.8 (≈ 411 µM) | 1.33 | > 125 | < 1.00 | 39 (≈ 171 µM) | 
CCN1C(=O)NC(=O)C2(F)C1C(C)(C)C2(C)C (stereo not shown) [TI-62 Substance, 2-ethyl-6-fluoro-7,7,8,8-tetramethyl-2,4-diaza-bicyclo{4.3.0}octane-3,5-dione] | > 250 | < 1.00 | 1000 | 34 | 500 | > 500 | < 2.00 | > 125 | < 2.00 | 250 | 250 | > 250 | < 2.00 | > 250 | < 1.00 | 9 (≈ 37.1 µM) | 
CCN1C(=O)N(CC)C2C(C)(C)C(C)(C)C2(F)C1=O (stereo not shown) [TI-65 Substance, 2,4-diethyl-6-fluoro-7,7,8,8-tetramethyl-2,4-diaza-bicyclo{4.2.0}octane-3,5-dione] | > 250 | < 1.00 | 1000 | 20 | 500 | 375 (≈ 1390 µM) | 2.67 | > 125 | < 2.00 | 250 | 250 | 188 (≈ 695 µM) | 2.66 | > 250 | < 1.00 | 36 (≈ 133 µM) | 
CC1(C)C2N(Cc3ccccc3)C(=O)N(Cc3ccccc3)C(=O)C2(F)C1(C)C (stereo not shown) [TI-66 Substance, 2,4-dibenzyl-6-fluoro-7,7,8,8-tetramethyl-2,4-diaza-bicyclo{4.2.0}octane-3,5-dione] | > 25 | < 0.62 | 250 | 65 | 62.5 | > 200 | < 1.25 | 18.8 (≈ 47.7 µM) | 0.83 | 15.6 | 15.6 | > 100 | < 0.63 | > 25 | < 0.62 | 7 (≈ 17.7 µM) | 
